Laboratory results: BindingDB's records for doi:10.1021/acs.jmedchem.8b01200 (Fuji Research Park, R&D Division, 2018)

Test: Agonist activity at PPARgamma in human MKN45 cells assessed as cell differentiation after 5 days by Hoechst 33342 staining-based assay

- EC50: > 500 nM
Structure (SMILES): CCCCCS(=O)(=O)NC(=O)c1ccc2nc(C)n(Cc3ccc(Cl)cc3Cl)c2c1 [ATx08-001]
